Measured values: patent US9409866B2, “Pyridine-2-amides useful as CB2 agonists” (Hoffmann-La Roche Inc., priority 2012, dated 2016)
Where two headings read alike, the source gives them in different places.

Tests used:
human CB2 receptors = human CB2 receptors (Homo sapiens (Human), UniProt P34972); test: functional cAMP assay, CHO cells expressing human CB2; assay type: cell-based; conditions: Human CB2 EC50 (uM)
Method: (§1) CHO cells expressing human CB1 or CB2 receptors are seeded 17-24 hours prior to the experiment 50.000 cells per well in a black 96 well plate with flat clear bottom (Corning Costar #3904) in DMEM (Invitrogen No. 31331), 1×HT supplement, with 10% fetal calf serum and incubated at 5% CO2 and 37° C. in a humidified incubator. The growth medium was exchanged with Krebs Ringer Bicarbonate buffer with 1 mM IBMX and incubated at 30° C. for 30 min. Compounds were added to a final assay volume of 100 μl and incubated for 30 min at 30° C. Using the cAMP-Nano-TRF detection kit the assay (Roche Diagnostics) was stopped by the addition of 50 μl lysis reagent (Tris, NaCl, 1.5% Triton X100, 2.5% NP40, 10% NaN3) and 50 μl detection solutions (20 μM mAb Alexa700-cAMP 1:1, and 48 μM Ruthenium-2-AHA-cAMP) and shaken for 2 h at room temperature. The time-resolved energy transfer is measured by a TRF reader (Evotec Technologies GmbH), equipped with a ND:YAG laser as excitation source. The plate is measured twice with the excitation at 355 nm and at the emission with a delay of 100 ns and a gate of 100 ns, total exposure time 10 s at 730 (bandwidth 30 nm) or 645 nm (bandwidth 75 nm), respectively. The FRET signal is calculated as follows: FRET=T730-Alexa730-P(T645-B645) with P=Ru730-B730/Ru645-B645, where T730 is the test well measured at 730 nM, T645 is the test well measured at 645 nm, B730 and B645 are the buffer controls at 730 nm and 645 nm, respectively. cAMP content is determined from the function of a standard curve spanning from 10 μM to 0.13 nM cAMP.
(§2) EC50 values were determined using Activity Base analysis (ID Business Solution, Limited). The EC50 values for a wide range of cannabinoid agonists generated from this assay were in agreement with the values published in the scientific literature.

human CB1 receptors = human CB1 receptors (Homo sapiens (Human), UniProt P21554); test: functional cAMP assay, CHO cells expressing human CB1; assay type: cell-based; conditions: functional cAMP assay, CHO cells expressing human CB1
Method: as §1, §2

human CB2 receptors, sequence (P34972 whole entry): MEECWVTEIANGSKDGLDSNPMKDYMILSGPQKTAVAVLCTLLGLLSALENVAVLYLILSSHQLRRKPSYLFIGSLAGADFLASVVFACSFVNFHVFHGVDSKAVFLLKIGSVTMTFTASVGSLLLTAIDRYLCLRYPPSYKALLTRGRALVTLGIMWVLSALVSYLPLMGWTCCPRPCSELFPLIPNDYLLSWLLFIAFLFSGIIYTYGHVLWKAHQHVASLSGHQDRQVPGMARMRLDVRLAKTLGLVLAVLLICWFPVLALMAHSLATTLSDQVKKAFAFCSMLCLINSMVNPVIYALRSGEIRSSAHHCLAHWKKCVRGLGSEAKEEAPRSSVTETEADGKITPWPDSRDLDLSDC
human CB1 receptors, sequence (P21554 whole entry): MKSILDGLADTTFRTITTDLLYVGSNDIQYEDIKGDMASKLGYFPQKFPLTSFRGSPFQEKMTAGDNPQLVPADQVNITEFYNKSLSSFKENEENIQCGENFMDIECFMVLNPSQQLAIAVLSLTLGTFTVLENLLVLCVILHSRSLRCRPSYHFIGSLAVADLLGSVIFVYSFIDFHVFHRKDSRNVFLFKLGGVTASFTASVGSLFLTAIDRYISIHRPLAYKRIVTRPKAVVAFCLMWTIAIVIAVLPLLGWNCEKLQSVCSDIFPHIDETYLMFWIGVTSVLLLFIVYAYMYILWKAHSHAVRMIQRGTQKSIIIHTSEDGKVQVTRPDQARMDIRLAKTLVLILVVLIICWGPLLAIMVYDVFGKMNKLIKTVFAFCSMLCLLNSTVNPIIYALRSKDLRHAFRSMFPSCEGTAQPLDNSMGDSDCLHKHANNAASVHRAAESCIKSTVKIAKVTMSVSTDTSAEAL

Cn1nnnc1C(C)(CC1CC1)NC(=O)c1cc(OCC(F)(F)F)c(C2CC2)cn1 (single isomer, unassigned) [Example 228, 5-cyclopropyl-N-[1-cyclopropyl-2-(1-methyltetrazol-5-yl)propan-2-yl]-4-(2,2,2-trifluoroethoxy)pyridine-2-carboxamide]
EC50 (human CB2 receptors): 0.0346 µM | EC50 (human CB1 receptors; Human CB1 EC50 (uM)): > 10 µM

CNC(=O)CC(C)(NC(=O)c1cc(OCC(F)(F)F)c(C2CC2)cn1)C1CC1 (single isomer, unassigned) [Example 241, 5-cyclopropyl-N-[2-cyclopropyl-4-(methylamino)-4-oxobutan-2-yl]-4-(2,2,2-trifluoroethoxy)pyridine-2-carboxamide]
EC50 (human CB2 receptors): 0.0119 µM | EC50 (human CB1 receptors; Human CB1 EC50 (uM)): > 10 µM

CNC(=O)CC(C)(NC(=O)c1cc(OCC(F)(F)F)c(C2CC2)cn1)C1CC1 (single isomer, unassigned) [Example 242, 5-cyclopropyl-N-[2-cyclopropyl-4-(methylamino)-4-oxobutan-2-yl]-4-(2,2,2-trifluoroethoxy)pyridine-2-carboxamide]
EC50 (human CB2 receptors): 0.237 µM | EC50 (human CB1 receptors; read-out: Human CB1 EC50): > 10 µM

CC(CC(N)=O)(NC(=O)c1cc(OCC(F)(F)F)c(C2CC2)cn1)C1CC1 (single isomer, unassigned) [Example 243, N-[4-amino-2-cyclopropyl-4-oxobutan-2-yl]-5-cyclopropyl-4-(2,2,2-trifluoroethoxy)pyridine-2-carboxamide]
EC50 (human CB2 receptors): 0.0005 µM | EC50 (human CB1 receptors; Human CB1 EC50 (uM)): > 10 µM

CC(CC(N)=O)(NC(=O)c1cc(OCC(F)(F)F)c(C2CC2)cn1)C1CC1 (single isomer, unassigned) [Example 244, N-[4-amino-2-cyclopropyl-4-oxobutan-2-yl]-5-cyclopropyl-4-(2,2,2-trifluoroethoxy)pyridine-2-carboxamide]
EC50 (human CB2 receptors): 0.0284 µM | EC50 (human CB1 receptors; read-out: Human CB1 EC50): > 10 µM

CC(C)(C)C(NC(=O)c1cc(OCC2CC2)c(N2CC(F)(F)C2)cn1)C(N)=O (single isomer, unassigned) [Example 260, N-[1-amino-3,3-dimethyl-1-oxobutan-2-yl]-4-(cyclopropylmethoxy)-5-(3,3-difluoroazetidin-1-yl)pyridine-2-carboxamide]
EC50 (human CB2 receptors): 0.0209 µM | EC50 (human CB1 receptors; Human CB1 EC50 (uM)): > 10 µM

CC(C)(C)C(NC(=O)c1cc(OCC2CC2)c(N2CC(F)(F)C2)cn1)C(N)=O (single isomer, unassigned) [Example 261, N-[1-amino-3,3-dimethyl-1-oxobutan-2-yl]-4-(cyclopropylmethoxy)-5-(3,3-difluoroazetidin-1-yl)pyridine-2-carboxamide]
EC50 (human CB2 receptors): 0.0211 µM | EC50 (human CB1 receptors; read-out: Human CB1 EC50): > 10 µM

CC(C)(C)C(NC(=O)c1cc(OCC(F)(F)F)c(N2CC(F)(F)C2)cn1)C(N)=O (single isomer, unassigned) [Example 262, N-[1-amino-3,3-dimethyl-1-oxobutan-2-yl]-5-(3,3-difluoroazetidin-1-yl)-4-(2,2,2-trifluoroethoxy)pyridine-2-carboxamide]
EC50 (human CB2 receptors): 0.261 µM | EC50 (human CB1 receptors; Human CB1 EC50 (uM)): > 10 µM

CC(C)(C)C(NC(=O)c1cc(OCC(F)(F)F)c(N2CC(F)(F)C2)cn1)C(N)=O (single isomer, unassigned) [Example 263, N-[1-amino-3,3-dimethyl-1-oxobutan-2-yl]-5-(3,3-difluoroazetidin-1-yl)-4-(2,2,2-trifluoroethoxy)pyridine-2-carboxamide]
EC50 (human CB2 receptors): 0.0338 µM | EC50 (human CB1 receptors; read-out: Human CB1 EC50): > 10 µM

CC1(C(NC(=O)c2cc(OCC(F)(F)F)c(C3CC3)cn2)C(N)=O)COC1 (single isomer, unassigned) [Example 268, N-[2-amino-1-(3-methyloxetan-3-yl)-2-oxoethyl]-5-cyclopropyl-4-(2,2,2-trifluoroethoxy)pyridine-2-carboxamide]
EC50 (human CB2 receptors): 0.225 µM | EC50 (human CB1 receptors; Human CB1 EC50 (uM)): > 10 µM

CC1(C(NC(=O)c2cc(OCC(F)(F)F)c(C3CC3)cn2)C(N)=O)COC1 (single isomer, unassigned) [Example 269, N-[2-amino-1-(3-methyloxetan-3-yl)-2-oxoethyl]-5-cyclopropyl-4-(2,2,2-trifluoroethoxy)pyridine-2-carboxamide]
EC50 (human CB2 receptors): 0.771 µM | EC50 (human CB1 receptors; read-out: Human CB1 EC50): > 10 µM

CC(CC(N)=O)(NC(=O)c1cc(OCCF)c(C2CC2)cn1)C1CC1 (single isomer, unassigned) [Example 270, N-[4-amino-2-cyclopropyl-4-oxobutan-2-yl]-5-cyclopropyl-4-(2-fluoroethoxy)pyridine-2-carboxamide]
EC50 (human CB2 receptors): 0.0689 µM | EC50 (human CB1 receptors; Human CB1 EC50 (uM)): > 10 µM

CC(CC(N)=O)(NC(=O)c1cc(OCCF)c(C2CC2)cn1)C1CC1 (single isomer, unassigned) [Example 271, N-[4-amino-2-cyclopropyl-4-oxobutan-2-yl]-5-cyclopropyl-4-(2-fluoroethoxy)pyridine-2-carboxamide]
EC50 (human CB2 receptors): 0.0015 µM | EC50 (human CB1 receptors; read-out: Human CB1 EC50): > 10 µM

CC(CC(N)=O)(NC(=O)c1cc(OCC(F)F)c(C2CC2)cn1)C1CC1 (single isomer, unassigned) [Example 272, N-[4-amino-2-cyclopropyl-4-oxobutan-2-yl]-5-cyclopropyl-4-(2,2-difluoroethoxy)pyridine-2-carboxamide]
EC50 (human CB2 receptors): 0.0495 µM | EC50 (human CB1 receptors; Human CB1 EC50 (uM)): > 10 µM

CC(CC(N)=O)(NC(=O)c1cc(OCC(F)F)c(C2CC2)cn1)C1CC1 (single isomer, unassigned) [Example 273, N-[4-amino-2-cyclopropyl-4-oxobutan-2-yl]-5-cyclopropyl-4-(2,2-difluoroethoxy)pyridine-2-carboxamide]
EC50 (human CB2 receptors): 0.0017 µM | EC50 (human CB1 receptors; read-out: Human CB1 EC50): > 10 µM

CC(CC(N)=O)(NC(=O)c1cc(OCC(F)(F)F)c(N2CC(F)(F)C2)cn1)C1CC1 (single isomer, unassigned) [Example 275, N-[4-amino-2-cyclopropyl-4-oxobutan-2-yl]-5-(3,3-difluoroazetidin-1-yl)-4-(2,2,2-trifluoroethoxy)pyridine-2-carboxamide]
EC50 (human CB2 receptors): 0.0227 µM | EC50 (human CB1 receptors; Human CB1 EC50 (uM)): > 10 µM

CC(CC(N)=O)(NC(=O)c1cc(OCC(F)(F)F)c(N2CC(F)(F)C2)cn1)C1CC1 (single isomer, unassigned) [Example 276, N-[4-amino-2-cyclopropyl-4-oxobutan-2-yl]-5-(3,3-difluoroazetidin-1-yl)-4-(2,2,2-trifluoroethoxy)pyridine-2-carboxamide]
EC50 (human CB2 receptors): 0.137 µM | EC50 (human CB1 receptors; read-out: Human CB1 EC50): > 10 µM

C[C@H](Oc1cc(C(=O)NC(C)(CC(N)=O)C2CC2)ncc1C1(F)COC1)C(F)(F)F (single isomer, unassigned) [Example 277]
EC50 (human CB2 receptors): 0.0431 µM | EC50 (human CB1 receptors; Human CB1 EC50 (uM)): > 10 µM

C[C@H](Oc1cc(C(=O)NC(C)(CC(N)=O)C2CC2)ncc1C1(F)COC1)C(F)(F)F (single isomer, unassigned) [Example 278]
EC50 (human CB2 receptors): 0.0929 µM | EC50 (human CB1 receptors; read-out: Human CB1 EC50): > 10 µM

Cc1nc(C(C)(CS(C)(=O)=O)NC(=O)c2cc(OCCF)c(C3CC3)cn2)no1 (single isomer, unassigned) [Example 279, 5-cyclopropyl-4-(2-fluoroethoxy)-N-[2-(5-methyl-1,2,4-oxadiazol-3-yl)-1-methylsulfonylpropan-2-yl]pyridine-2-carboxamide]
EC50 (human CB2 receptors): 0.173 µM | EC50 (human CB1 receptors; Human CB1 EC50 (uM)): > 10 µM

Cc1nc(C(C)(CS(C)(=O)=O)NC(=O)c2cc(OCCF)c(C3CC3)cn2)no1 (single isomer, unassigned) [Example 280, 5-cyclopropyl-4-(2-fluoroethoxy)-N-[2-(5-methyl-1,2,4-oxadiazol-3-yl)-1-methylsulfonylpropan-2-yl]pyridine-2-carboxamide]
EC50 (human CB2 receptors): 0.0786 µM | EC50 (human CB1 receptors; read-out: Human CB1 EC50): > 10 µM
